Source: patent publication US20040106135A1, “Assay for PPAR ligand dependent gene modulation” (priority 2002, published 2004)

Key:
[1] = system: hamster PDK-4 mRNA in liver; experiment: PDK-4 mRNA induction in liver of fat-fed hamsters; format: in vivo; details: single dose (GW9578 3 mg/kg, fenofibrate 100 mg/kg, gemfibrozil 500 mg/kg), 16 hour post-treatment
Method: (§1) FIG. 4A is a bar graph depicting the induction of PDK-4 mRNA in hamster liver by PPARα ligands. […] After 16 hours, the tissues were harvested, total RNA isolated and levels of hamster PDK-4 mRNA were detected by RT-PCR. The values are normalized to 18S rRNA levels. The mean and SEM of three individual animals are shown.
(§2) PDK-4 plays a critical role in regulating glucose metabolism by phosphorylating and inactivating the pyruvate dehydrogenase complex in response to increased fatty acid oxidation. […] To investigate the response of PDK-4 to fibrate treatment in vivo, in another aspect of the present invention the fat-fed hamster model was employed, which closely mimics the serum lipid profiles of humans than other rodent models (Sullivan et al., (1993) Lab. Anim. Sci. 43:575-578). […] These doses were previously shown to yield maximal effects on blood triglycerides in hamster. […] In hamster kidney, the basal levels of PDK-4 mRNA were approximately 10-fold higher than in the liver (FIG. 4B). […] Fibrates are effective treatments for lowering serum triglyceride levels. To verify that the doses used in this study were efficacious, blood triglyceride levels were monitored over a 48 hour time course.
(§3) Real-time PCR: Fluorescence-based real-time PCR was performed essentially as described (Abbaszade et al., (1999) J. Biol. Chem. 274:23443-23450). […] Taqman-based real-time PCR expression profiling was performed using 25 ng of each cDNA according to the manufacturer's (PE Biosystems) instructions with fluorescence being monitored in real-time with an ABI Prism 7700 (PE Biosystems). Relative expression levels were determined essentially as described (Gibson et al., (1996) Genome Res. 6:995-1001) using standard curves for each transcript. Relative abundance was then determined from these standard curves, subtracting mRNA levels obtained from negative control reactions performed in the absence of reverse transcriptase, and normalized to 18S rRNA levels. […]

Caki-1 cells = experiment: Transcriptional profiling by DNA microarray, Caki-1 cells; format: cell-based, human
Method: Expression profiling: Expression profiling of RNA samples was performed essentially as described (Lockhart et al., (1996) Nat. Biotechnol. 14:1675-80) using the Affymetrix human U95Av2 array. Briefly, RNA was isolated from 100 mm cell culture dishes, DNased, and 15 μg used as a template for double stranded cDNA synthesis according to standard protocols (Invitrogen). Reverse transcription was primed using a T7-modified oligo-dT primer (5-[…]-d(T)24-3′) (SEQ ID NO: 1). In vitro transcription was then performed on each double stranded cDNA synthesis, according to the manufacturer's (Enzo Diagnostics) instructions. The resultant cRNA products were purified using RNeasy columns (Qiagen), pooled, and quantitated spectrophotometrically. For each sample, 20 μg of in vitro transcribed cRNA was fragmented by heating the sample to 94° C. in the presence of 40 mM Tris-acetate, pH 8.1, 100 mM potassium acetate, and 30 mM magnesium acetate. […]
Data Analysis: Affymetrix CEL files from GeneChip 4.0 (Affymetrix) were imported into Resolver 2.0 under an empirically derived Affymetrix error model (Rosetta Inpharmatics). […] Accordingly, the statistical significance (P-value) of a given expression data point takes into account the underlying error associated with the Affymetrix transcript abundance measurements as determined by this platform-specific error model. […]

[2] = system: hamster PDK-4 mRNA in kidney; experiment: PDK-4 mRNA induction in kidney of fat-fed hamsters; format: in vivo; details: single dose (GW9578 3 mg/kg, fenofibrate 100 mg/kg, gemfibrozil 500 mg/kg), 16 hours
Method: as §1, with “4B” for “4A”, “graphs” for “graph”, “kidney” for “liver”
as §2, §3

## CCCCCCCN(CCc1ccc(SC(C)(C)C(=O)O)cc1)C(=O)Nc1ccc(F)cc1F [GW9578, ureido-thioisobutyric acid]
[1]
  Induction of PDK-4 mRNA levels in the liver: 200 fold
Caki-1 cells
  Changes in gene expression in Caki-1 cells: only minor changes
[2]
  Induction of PDK-4 mRNA in kidney: 7 fold
